# Target: p300 HAT domain (residues 1287-1666) (Homo sapiens (Human), UniProt Q09472)
# Experiment: p300 HAT SPA assay (scintillation proximity assay, acetylation of biotinylated H3(1-21) peptide)
# Type: biochemical
# Details: P300 HAT SPA IC50, p300 HAT domain; average of at least 2 replicate titrations
# Description: In a typical experiment the p300 HAT inhibitory activity of the compounds described herein was determined in accordance with the following experimental method.
# The expressed protein was purified by Ni2+ affinity, followed by anion exchange chromatography. Appropriate fractions were pooled and buffer exchanged into 20 mM Hepes pH 7.5, 150 mM NaCl, and 1 mM TCEP.
# 35 μL of the reaction volume was transferred to a 384-well streptavidin FlashPlate (PerkinElmer) using a Bravo liquid handler (Velocity 11) and incubated for 1.5 hr at RT. […] Data were analyzed in Genedata to determine inhibitor IC50 values.
# Sequence of p300 HAT domain (residues 1287-1666) (Q09472 1287-1666): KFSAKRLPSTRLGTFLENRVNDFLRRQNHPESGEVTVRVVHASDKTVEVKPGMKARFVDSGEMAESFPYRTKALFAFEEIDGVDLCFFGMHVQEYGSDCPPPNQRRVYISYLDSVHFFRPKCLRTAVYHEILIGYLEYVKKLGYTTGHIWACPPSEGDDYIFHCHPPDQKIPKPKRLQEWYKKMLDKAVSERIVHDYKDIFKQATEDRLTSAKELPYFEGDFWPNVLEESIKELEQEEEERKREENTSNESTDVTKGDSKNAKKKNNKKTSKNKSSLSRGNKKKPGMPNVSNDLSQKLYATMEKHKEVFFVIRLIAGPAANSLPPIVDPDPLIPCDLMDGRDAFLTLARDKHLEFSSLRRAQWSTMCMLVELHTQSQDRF
row,Structure (SMILES),IC50
1,"O=C(c1cn(CC(F)(F)F)c2ccccc12)C(NCCc1ccc(Cl)cc1)c1ccccc1 (single isomer, unassigned) [130 Isomer 1]",> 60 µM

# Same assay, conditions: p300 HAT domain; average of at least 2 replicate titrations; read-out: P300 HAT SPA IC50
row,IC50,Structure (SMILES)
1,3.35 µM,"CC(C)(O)CNC(=O)c1ccc2c(C(=O)C(NCCc3ccc(C#N)cc3)c3ccccc3)c[nH]c2c1 (single isomer, unassigned) [161 Isomer 1]"
2,9.95 µM,"COc1cccc2c(C(=O)[C@@H](NCCc3ccc(S(N)(=O)=O)cc3)c3ccccc3)c[nH]c12 (single isomer, unassigned) [144 Isomer 1]"
3,> 60 µM,"CN(C)C(=O)c1ccc(CCNC(C(=O)c2c[nH]c3ccccc23)c2ccccc2)cc1 (single isomer, unassigned) [135 Isomer 1]"
4,0.0232 µM,"CC(C)NC(=O)c1ccc2c(C(=O)C(NCCc3ccc(C#N)cc3)c3ccccc3)c[nH]c2c1 (single isomer, unassigned) [167 Isomer 1]"
5,2.48 µM,"COc1ccc(CCNC(C(=O)c2c[nH]c3c(C)cccc23)c2ccccc2)cc1 (single isomer, unassigned) [80 Isomer 1]"
6,3.27 µM,"Cn1cc(-c2ccc3c(C(=O)C(NCCc4ccc(C(=O)O)cc4Cl)c4ccccc4)c[nH]c3c2)cn1 (single isomer, unassigned) [142 Isomer 1]"
7,1.7 µM,"C[C@@H](O)CNC(=O)c1ccc2c(C(=O)C(NCCc3ccc(C#N)cc3)c3ccccc3)c[nH]c2c1 (single isomer, unassigned) [173 Isomer 1]"
8,21.8 µM,"CN(C)C(=O)Cc1ccc(CCNC(C(=O)c2c[nH]c3ccccc23)c2ccccc2)cc1 (single isomer, unassigned) [137 Isomer 1]"
9,2.07 µM,"CN1CCC(c2ccc3c(C(=O)C(NCCc4ccc(C(N)=O)cc4)c4ccccc4)c[nH]c3c2)CC1 (single isomer, unassigned) [178 Isomer 2]"
10,4.86 µM,"N#Cc1ccc(CCNC(C(=O)c2c[nH]c3cc(C(=O)NC4CN(CC(F)(F)F)C4)ccc23)c2ccccc2)cc1 (single isomer, unassigned) [162 Isomer 1]"
11,> 5 µM,"COCCn1cc(-c2ccc3c(C(=O)C(NCCc4ccc(C(N)=O)cc4)c4ccccc4)c[nH]c3c2)cn1 (single isomer, unassigned) [183 Isomer 1]"
12,1.88 µM,"CC(CNC(C(=O)c1cnn2cc(-c3cnn(C)c3)ccc12)c1ccccc1)c1ccc(C#N)cc1 (single isomer, unassigned) [102 Isomer 1]"
13,4.33 µM,"Cn1cc(-c2ccc3c(C(=O)C(NCCc4ccc(C(N)=O)cc4)c4ccccc4)c[nH]c3c2)nn1 (single isomer, unassigned) [180 Isomer 1]"
14,27.2 µM,"O=C(c1c[nH]c2cc(-c3ccncc3)ccc12)C(NCCc1ccc(Cl)cc1)c1ccccc1 (single isomer, unassigned) [89 Isomer 1]"
15,0.166 µM,"Cn1cc(-c2ccc3c(C(=O)C(NCCc4ccc(S(N)(=O)=O)cc4)c4ccccc4)cnn3c2)cn1 (single isomer, unassigned) [101 Isomer 1]"
16,2.64 µM,"O=C(c1c[nH]c2cc(-c3ccccn3)ccc12)C(NCCc1ccc(Cl)cc1)c1ccccc1 (single isomer, unassigned) [108 Isomer 2]"

row,IC50,Structure (SMILES)
1,> 30 µM,"Cc1ccc(-c2ccc3c(C(=O)C(NCCc4ccc(Cl)cc4)c4ccccc4)c[nH]c3c2)cn1 (single isomer, unassigned) [88 Isomer 1]"
2,0.212 µM,"CC(CNC(C(=O)c1cnn2cc(-c3cnn(C)c3)ccc12)c1ccccc1)c1ccc(C#N)cc1 (single isomer, unassigned) [102 Isomer 3]"
3,1.15 µM,"O=C(c1c[nH]c2cc(-c3ccncn3)ccc12)C(NCCc1ccc(Cl)cc1)c1ccccc1 (single isomer, unassigned) [111 Isomer 1]"
4,4.12 µM,"C[C@H](O)CNC(=O)c1ccc2c(C(=O)C(NCCc3ccc(C#N)cc3)c3ccccc3)c[nH]c2c1 (single isomer, unassigned) [168 Isomer 1]"
5,1.11 µM,"Cn1cnc(-c2ccc3c(C(=O)C(NCCc4ccc(C#N)cc4)c4ccccc4)c[nH]c3c2)c1 (single isomer, unassigned) [113 Isomer 1]"
6,4.24 µM,"CN(C)C(=O)c1ccc2c(C(=O)C(NCCc3ccc(C#N)cc3)c3ccccc3)c[nH]c2c1 (single isomer, unassigned) [172 Isomer 1]"
7,> 5 µM,"CCNC(=O)c1ccc2c(C(=O)C(C)NCCc3ccc(C#N)cc3)c[nH]c2c1 (single isomer, unassigned) [76 Isomer 2]"
8,22.9 µM,"NC(=O)c1ccc(CCNC(C(=O)c2c[nH]c3ccccc23)c2ccccc2)cc1 (single isomer, unassigned) [133 Isomer 1]"
9,0.123 µM,"N#Cc1ccc(CCNC(C(=O)c2c[nH]c3cc(C(=O)NC4CS(=O)(=O)C4)ccc23)c2ccccc2)cc1 (single isomer, unassigned) [166 Isomer 1]"
10,4.11 µM,"C[C@@H](NC(=O)c1ccc2c(C(=O)C(NCCc3ccc(C#N)cc3)c3ccccc3)c[nH]c2c1)C(F)(F)F (single isomer, unassigned) [170 Isomer 2]"
11,0.0871 µM,"C[C@H](NC(=O)c1ccc2c(C(=O)C(NCCc3ccc(C#N)cc3)c3ccccc3)c[nH]c2c1)C(F)(F)F (single isomer, unassigned) [169 Isomer 2]"
12,> 5 µM,"N#Cc1ccc(CCNC(C(=O)c2c[nH]c3cc(C(=O)N4CCCC4)ccc23)c2ccccc2)cc1 (single isomer, unassigned) [171 Isomer 1]"
13,0.493 µM,"N#Cc1ccc(CCNC(C(=O)c2c[nH]c3cc(-c4cn[nH]c4)ccc23)c2ccccc2)cc1 (single isomer, unassigned) [98 Isomer 1]"
14,> 30 µM,"CC(CNC(C(=O)c1c[nH]c2cc(-c3cnn(C)c3)ccc12)c1ccccc1)c1ccc(Cl)cc1 (single isomer, unassigned) [91 Isomer 2]"
15,> 5 µM,"NC(=O)c1ccc(CCNC(C(=O)c2c[nH]c3cc(-n4ccnc4)ccc23)c2ccccc2)cc1 (single isomer, unassigned) [181 Isomer 2]"

# The remaining lines, values behind:
row,Structure (SMILES),IC50
1,"Cn1cc(CCNC(C(=O)c2c[nH]c3ccccc23)c2ccccc2)cn1 (single isomer, unassigned) [35 Isomer 2]",43.5 µM
2,"O=C(c1c[nH]c2ccccc12)C(NCCc1ccc(Cl)cc1)C1CCCC1 (single isomer, unassigned) [25 Isomer 1]",> 60 µM
3,"O=C(c1c[nH]c2ccccc12)C(NCCc1ccc(Cl)cc1)C1CC1 (single isomer, unassigned) [24 Isomer 2]",> 60 µM
4,"CCNC(=O)c1ccc2c(C(=O)C(NCC(C)c3ccc(C#N)cc3)c3ccccc3)c[nH]c2c1 (single isomer, unassigned) [75 Isomer 2]",0.343 µM
5,"CCC(CNC(C(=O)c1c[nH]c2ccccc12)c1ccccc1)c1ccc(Cl)cc1 (single isomer, unassigned) [59 Isomer 3]",> 30 µM
6,"Cn1cc(C(=O)C(NCCc2ccc(S(N)(=O)=O)cc2)c2ccccc2)c2ccccc21 (single isomer, unassigned) [17 Isomer 2]",1.85 µM
7,"CN1CCC(c2ccc3c(C(=O)C(NCCc4ccc(C#N)cc4)c4ccccc4)c[nH]c3c2)CC1 (single isomer, unassigned) [64 Isomer 2]",0.08 µM
8,"Cc1cccc2c(C(=O)C(NC(C)Cc3ccc(Cl)cc3Cl)c3ccccc3)c[nH]c12 (single isomer, unassigned) [68 Isomer 3]",> 30 µM
9,"O=C(c1c[nH]c2ccccc12)C(NCCc1ccc(Cl)c(Cl)c1)c1ccccc1 (single isomer, unassigned) [20 Isomer 2]",3.07 µM
10,"COc1ccc(CCNC(C(=O)c2c[nH]c3c(Cl)cccc23)c2ccccc2)cc1 (single isomer, unassigned) [28 Isomer 2]",1.37 µM
11,"O=C(c1c[nH]c2ccccc12)C(NCCc1ccc(Cl)cc1)C1CC1 (single isomer, unassigned) [24 Isomer 1]",52.2 µM
12,"Cn1cc(CCNC(C(=O)c2c[nH]c3ccccc23)c2ccccc2)cn1 (single isomer, unassigned) [35 Isomer 1]",39.8 µM
13,"COc1cccc(CCNC(C(=O)c2c[nH]c3ccccc23)c2ccccc2)c1 (single isomer, unassigned) [7 Isomer 1]",7.35 µM
14,"CCNC(=O)c1ccc2c(C(=O)C(NCC(C)c3ccc(C#N)cc3)c3ccccc3)cnn2c1 (single isomer, unassigned) [69 Isomer 2]",2.87 µM
15,"O=C(c1c[nH]c2ccccc12)C(NCCc1cccc(Cl)c1)c1ccccc1 (single isomer, unassigned) [4 Isomer 2]",4.4 µM
16,"Cc1cccc2c(C(=O)C(NC(C)Cc3ccc(Cl)cc3Cl)c3ccccc3)c[nH]c12 (single isomer, unassigned) [68 Isomer 2]",> 30 µM
17,"O=C(c1c[nH]c2ccccc12)C(NCCc1cn[nH]c1)c1ccccc1 (single isomer, unassigned) [34 Isomer 2]",24.7 µM
18,"N#Cc1ccc(CCNC(C(=O)c2c[nH]c3ccccc23)c2ccccc2)cc1 (single isomer, unassigned) [58 Isomer 1]",25.3 µM
19,"O=C(c1c[nH]c2ccccc12)C(NCCN1CCCCC1=O)c1ccccc1 (single isomer, unassigned) [41 Isomer 2]",> 60 µM
20,"CN1CCC(c2ccc3c(C(=O)C(NCCc4ccc(C#N)cc4)c4ccccc4)c[nH]c3c2)CC1 (single isomer, unassigned) [64 Isomer 1]",0.097 µM
21,"NS(=O)(=O)c1ccc(CCNC(C(=O)c2c[nH]c3c(Cl)cccc23)c2ccccc2)cc1 (single isomer, unassigned) [15 Isomer 1]",> 60 µM
22,"CCNC(=O)c1ccc2c(C(=O)C(NCCc3ccc(C#N)cc3)c3ccccc3)cnn2c1 (single isomer, unassigned) [73 Isomer 2]",0.954 µM
23,"CC(Cc1ccc(C(N)=O)cc1)NC(C(=O)c1c[nH]c2ccccc12)c1ccccc1 (single isomer, unassigned) [140 Isomer 3]",> 5 µM

# Source: patent US11414384B2, “P300/CBP hat inhibitors” (Constellation Pharmaceuticals, Inc., priority 2018, dated 2022)
